Test results reported in publication PMC6770214, “An Aromatic Aldehyde Synthase Controls the Synthesis of Hydroxytyrosol Derivatives Present in Virgin Olive Oil” (Antioxidants, 2019).

Key:
OeAAS = biological target: T1, OeAAS (Olea europaea, UniProt A0A8S0T2W9); experiment: loss and restoration of enzyme activity without / with PLP; format: biochemical; conditions: PLP omitted during purification or in reaction medium
T1 construct: gene OLEA9_A000744; codon-optimised synthetic gene in pET-28a(+)-TEV (NdeI-XhoI), His-tagged, E. coli BL21(DE3), Ni-NTA
T1 sequence (A0A8S0T2W9 1-487): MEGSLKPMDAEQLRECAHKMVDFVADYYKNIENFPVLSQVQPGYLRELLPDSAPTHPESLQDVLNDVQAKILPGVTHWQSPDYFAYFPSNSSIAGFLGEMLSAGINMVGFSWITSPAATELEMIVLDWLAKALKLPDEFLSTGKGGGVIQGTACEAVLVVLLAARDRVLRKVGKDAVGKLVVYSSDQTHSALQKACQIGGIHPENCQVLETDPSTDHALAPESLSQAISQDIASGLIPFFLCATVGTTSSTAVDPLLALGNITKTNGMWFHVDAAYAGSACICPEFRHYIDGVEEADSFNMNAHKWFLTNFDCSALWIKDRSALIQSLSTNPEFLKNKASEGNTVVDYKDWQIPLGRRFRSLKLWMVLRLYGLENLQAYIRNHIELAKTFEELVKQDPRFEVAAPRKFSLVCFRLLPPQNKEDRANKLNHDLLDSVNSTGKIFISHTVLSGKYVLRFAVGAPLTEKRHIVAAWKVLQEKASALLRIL

[1] = substrate: N[C@@H](Cc1ccc(O)c(O)c1)C(=O)O; experiment: HPLC-DAD quantification of aldehyde product; format: biochemical, Olea europaea; conditions: 50 mM sodium phosphate pH 6.8, 200 uM PLP, 30 °C, 20 min, L-DOPA 0.05-5 mM

## Cc1ncc(COP(=O)(O)O)c(C=O)c1O [PLP]
OeAAS
  loss and restoration of enzyme activity without / with PLP: absence of PLP during purification or in the reaction medium resulted in a total loss

B1: OeAAS (Olea europaea subsp. europaea) (protein)
chain: MEGSLKPMDAEQLRECAHKMVDFVADYYKNIENFPVLSQVQPGYLRELLPDSAPTHPESLQDVLNDVQAKILPGVTHWQSPDYFAYFPSNSSIAGFLGEMLSAGINMVGFSWITSPAATELEMIVLDWLAKALKLPDEFLSTGKGGGVIQGTACEAVLVVLLAARDRVLRKVGKDAVGKLVVYSSDQTHSALQKACQIGGIHPENCQVLETDPSTDHALAPESLSQAISQDIASGLIPFFLCATVGTTSSTAVDPLLALGNITKTNGMWFHVDAAYAGSACICPEFRHYIDGVEEADSFNMNAHKWFLTNFDCSALWIKDRSALIQSLSTNPEFLKNKASEGNTVVDYKDWQIPLGRRFRSLKLWMVLRLYGLENLQAYIRNHIELAKTFEELVKQDPRFEVAAPRKFSLVCFRLLPPQNKEDRANKLNHDLLDSVNSTGKIFISHTVLSGKYVLRFAVGAPLTEKRHIVAAWKVLQEKASALLRIL
notes: codon-optimised synthetic gene in pET-28a(+)-TEV (NdeI-XhoI), His-tagged, E. coli BL21(DE3), Ni-NTA
[1]
  Km: 150 µM
